What all share (type): cell-based, human
For test [1], the system named is Healthy (GM08402) fibroblasts. Description: Erastin cytoprotection assay, healthy fibroblasts. The settings on record: 2 μM erastin, 250 μM FAC, 50 μM AA, 10-1000 nM compound, 24 h. As to the method:
(§1) Briefly, Healthy (GM08402) or Leigh (GM03672) fibroblasts were resuspended in assay medium, seeded at 10,000 cells per well in a clear, tissue cultured-treated, 96-well plate, and incubated at 37° C. overnight. Following the incubation, supernatant was manually aspirated from wells, taking care not to disrupt cells. Fibroblasts were co-treated in a final volume of 100 μL with 2 μM erastin (Millipore Corp., Cat #), 250 μM ferric ammonium citrate (FAC), 50 μM ascorbic acid (AA), and a titration of one of each of Compounds 1 to 4 or Vatiquinone ranging from 10 to 1000 nM. Following another 24-hour incubation at 37° C., cell viability was measured using the CellTiter-Glo Luminescent Cell Viability Kit (ProMega) per Manufacturer's instructions. Luminescence units were quantified by GEN5 software on a BioTek SYNERGY neo2 plate reader (LUM filter).
(§2) Briefly, erastin, like RSL3, is known to induce ferroptosis. […] Erastin was incubated with cell fibroblasts for 24 hours to induce ferroptosis. Cells were co-treated with each of Compounds 1 to 4, or Vatiquinone as the test articles. Test articles were administered at a range of concentrations to derive a curve. Cell viability was determined using a commercially available kit that measures ATP production. […] An increase in cell viability as determined by the assay is considered to be protective against ferroptosis.

For test [2], the system named is 15-lipoxygenase (15-LO). Description: 15(S)-HETE ELISA following RSL3 treatment, healthy fibroblasts. To be noted: 700 nM RSL3, 1 μM compound, 24 h. The protocol:
Samples for the 15(S)-HETE ELISA were generated by the RSL3 cytoprotection assay described above. Healthy or Leigh fibroblasts were resuspended in assay medium, seeded at 200,000 cells per well in a clear, tissue culture-treated, 24-well plate. Cells were incubated at 37° C. for 24 hours. Supernatant was aspirated from each well following the incubation.
Fibroblasts from both a healthy individual and a patient diagnosed with Leigh syndrome were examined (but not all compounds were examined in each cell type). Activation of ferroptosis has been implicated as a driver of epilepsy, which is commonly associated with Leigh syndrome. […] Kahn-Kirby et al. PLOS One. […] As a key regulator of ferroptosis, 15-LO serves as a rational therapeutic target in Leigh syndrome.
Background: ELISA stands for enzyme-linked immunosorbent assay.

Test [3] concerns Leigh (GM03672) fibroblasts. Description: Erastin cytoprotection assay, Leigh fibroblasts. The settings on record: 2 μM erastin, 250 μM FAC, 50 μM AA, 10-1000 nM compound, 24 h. The protocol:
as §1, §2

The test system of test [4] is Leigh fibroblasts (GM03672). Nature of the test: Mitochondrial membrane potential (TMRM flow cytometry) in RSL3-treated Leigh fibroblasts. The settings on record: 1 μM RSL3 with 1 μM compound, 4 h. The protocol: Leigh fibroblasts (GM03672) were seeded in a 24-well, tissue culture-treated plate in complete MEM (MEM+15% FBS+1% penicillin/streptomycin) at a density of 1×10^5 cells per 500 μL and incubated overnight at 37° C. at 5% CO2. Cells were treated for 4 hours at 37° C. with either 1 μM RSL3, 1 μM RSL3 with 1 μM Compound 3 or media for untreated cells. Following the incubation, supernatant was removed and cells were treated with 0.25% trypsin for 5 min at 37° C. Trypsin was neutralized with an equal part MEM. Cells were dislodged with gentle pipetting and pelleted at 300×g for 5 minutes. Pellets were resuspended in 500 μL Fluobrite DMEM and cells were transferred to a 96-well, v-bottom plate. Cells were stained with 20 nM MitoTracker Green and 100 nM tetramethylrhodamine methyl ester (TMRM) Samples were incubated for 25 minutes at 37° C. Each well was mixed immediately prior to analysis to resuspend settled cells. Fluorescence intensity was measured on the BD Accuri C6 Plus Flow Cytometer. A minimum of 10,000 events per sample was collected. Data analysis was performed using FloJo vs. 10. Gating was performed by establishing an initial forward scatter vs. side scatter gate. MitoTracker Green positive, TMRM positive cells were identified through subsequent gating. Median fluorescence intensity (MFI) of TMRM fluorescence was determined. Using GraphPad Prism 10, statistical significance between groups was determined by One-way ANOVA. A p-value of less than 0.05 was considered significant. Results are presented graphically in FIG. 20.
A general note: Flow cytometry measures light scatter and fluorescence of single cells or particles in a stream.

For `CC1=C(C)C(=O)C(CC[C@](C)(O)CCCCCCCCC(F)(F)F)=C(C)C1=O` [Compound 4], in test [1], the “relative protective effect against erastin induced ferroptosis (cell viability, ATP)” value (from here on “relative protective effect”) is recorded as “about equally protective”. Also, in test [2], the “inhibition of 15-lipoxygenase (15(S)-HETE in supernatant)” value (“inhibition of 15-lipoxygenase” for short) was “inhibited 15-lipoxygenase” and the “relative 15-LO inhibition (comparison between test articles)” value (from here on “relative 15-LO inhibition”) is reported as “roughly equivalent protective effect”. Besides, the “relative protective effect” value in test [3] is “about equally protective”. Moreover, the “mitochondrial membrane potential (TMRM MFI), protection” value in test [4] was “protective of the Leigh fibroblasts from the loss of mitochondrial membrane potential”.
In the case of `CC1=C(C)C(=O)C(CC[C@@](C)(O)CC/C=C(\C)CCC=C(F)F)=C(C)C1=O` [Compound 2], the “relative protective effect” value in test [1] and in test [3] was “superior in their protective effect as compared with Vatiquinone or Compounds 1 or 4” throughout. Further, the “inhibition of 15-lipoxygenase” value in test [2] was “inhibited 15-lipoxygenase”. Moreover, the “relative 15-LO inhibition” value in test [2] is “roughly equivalent protective effect”.
Consider `CC1=C(C)C(=O)C(CC[C@@](C)(O)COCCC[Si](C)(C)C)=C(C)C1=O` [Compound 3], for which, in test [1], the “relative protective effect” value was “superior in their protective effect as compared with Vatiquinone or Compounds 1 or 4”. Moreover, in test [2], the “inhibition of 15-lipoxygenase” value is “inhibited 15-lipoxygenase”; the “relative 15-LO inhibition” value is “superior to Compounds 2, 4 and Vatiquinone”. In addition, the “relative protective effect” value in test [3] is “superior in their protective effect as compared with Vatiquinone or Compounds 1 or 4”. Besides, in test [4], the “mitochondrial membrane potential (TMRM MFI), protection” value is “protective of the Leigh fibroblasts from the loss of mitochondrial membrane potential”.

The values are drawn from patent US20250090562A1, “METHODS, COMPOSITIONS AND USES RELATED TO THE TREATMENT AND PREVENTION OF LEIGH’S SYNDROME” (Stealth BioTherapeutics Inc., priority 2023, published 2025).
